These results are taken from PMC5244392, “Interspecies cathelicidin comparison reveals divergence in antimicrobial activity, TLR modulation, chemokine induction and regulation of phagocytosis” (Scientific Reports, 2017).

What all share (type): cell-based, murine
In test [1] the test system is CCL2 (MCP-1) release by RAW264.7 cells. In words: Cathelicidin induced CCL2 release. Conditions: for Summary class, chemokines CCL2 (2 h): 2 h stimulation, − = no significant effect, N = 3. Here is the method: (§1) E. coli O78 (Zoetis Animal Health, Kalamazoo, MI, USA), E. coli ATCC 25922, Staphylococcus aureus ATCC 29213, and methicillin resistant Staphylococcus aureus (MRSA) (WKZ-2, human clinical isolate) were grown overnight from a glycerol stock in Mueller Hinton Broth (MHB) (Becton Dickinson, USA). Before use, bacteria were grown to mid-log phase in MHB for 2 hours at 37 °C, 200 RPM. Murine RAW264.7 macrophages (ATCC-TIB-71) were obtained from the American Type Culture Collection (ATCC, Manassas, VA, USA) and cultured in DMEM (41966-029; Thermo Fisher Scientific, Waltham, MA, USA) supplemented with 10% FCS (Bodinco B.V., Alkmaar, the Netherlands) (DMEM + FCS) at 37 °C, 5.0% CO2. Cells were seeded in 96-wells plates at 5 × 10^5 cells/ml or 12-wells plates at 2 × 10^5/ml for adherence overnight prior to stimulation.
(§2) ELISA Duoset kits for mouse TNFα, CCL5, CXCL10 and IL-10 were obtained from R&D systems (Minneapolis, MN, USA) and ELISAs were performed according to the manufacturer’s protocol. Samples were stored at −20 °C until analysis and, if needed, diluted in 1% BSA in PBS, pH 7.4. Absorbance at 450 nm was determined in a FLUOstar Omega microplate reader (BMG Labtech GmbH) and corrected for absorbance at 570 nm. Results were analyzed with MARS data analysis software (BMG Labtech GmbH).
(§3) Since cathelicidins have membrane-perturbing properties which might affect the host’s cell membrane, first the possible cytotoxicity of the cathelicidins to RAW264.7 cells was assessed. […] Next, RAW264.7 cells were stimulated with the cathelicidins at various concentrations for 2 h and 24 h, after which release of CCL2 (MCP-1), CCL5 (RANTES), CXCL10 (IP-10), TNFα and IL-10 was determined.
(§4) Figure 2 Cathelicidin induced chemokine and cytokine release by RAW264.7 cells. RAW264.7 cells were incubated for 2 h and 24 h with cathelicidins (0.08 μM, 0.31 μM, 1.25 μM, 5 μM, and 20 μM), after which the supernatants were harvested and tested for release of CCL2 at 2 h (A) and 24 h (B), CCL5 at 24 h (C) and CXCL10 at 24 h (D). Dotted line represents average cytokine release of control samples. Results are presented as average +/− SEM (N = 3). Statistical differences were determined by Two-way ANOVA with Bonferroni post-hoc test.

Test [2] concerns LTA-induced TLR-2 activation of RAW264.7 cells. As to the kind of experiment: LTA neutralization: LTA-induced TNFα release. Conditions: peptide 0.08-20 μM; for Summary class, TLR activation LTA: 1 μg/ml LTA S. aureus, TNFα after 2 h, − = no significant effect, N = 3; for LTA neutralization / inhibition of LTA-induced activation, in words: 1 μg/ml S. aureus LTA, 2 h, TNFα.
Excerpt: (§5) TLR ligands: LPS Escherichia coli (E. coli) O111:B4 (TLR-4), LTA S. aureus (TLR-2), and ODN-1826 (TLR-9) were obtained from Invivogen (Toulouse, France). Chicken CATH-2 (chCATH-2) and PMAP-36 were synthesized by Fmoc-chemistry at China Peptides (CPC scientific, Sunnycale, CA) and all other cathelicidins were synthesized by Fmoc-chemistry at the Academic Centre for Dentistry Amsterdam (Amsterdam, The Netherlands) (Table 1). Purity of all peptides was >95% as analyzed by HPLC-MS.
(§6) RAW264.7 cells were stimulated with 100 ng/ml LPS E. coli O111:B4, 1 μg/ml LTA S. aureus or 2.5 nM ODN-1826 in the presence of various concentrations of different cathelicidins. TNFα release was determined after 2 h for LPS and LTA stimulation and 24 h for ODN-1826 stimulation. CXCL10, CCL5 and IL-10 release were all determined after 24 h stimulation. As a control, RAW264.7 cells were stimulated for 2 h with 10^6 CFU/ml live or heat-killed (70 °C, 0.5 h) E. coli O78, followed by a double wash with cell culture medium and subsequent 22 h incubation in cell culture medium supplemented with 250 μg/ml gentamicin.
as §2
RAW264.7 cells were stimulated for 2 h with 100 ng/ml LPS from E. coli O111:B4 in the presence of different cathelicidins at various concentrations to study the capability of LPS neutralization (Fig. 3A). […] Next, RAW264.7 cells were stimulated with 1 μg/ml S. aureus LTA for 2 h in the presence of various cathelicidin concentrations, to test LTA neutralization (Fig. 3B).
(§7) Figure 3 Effects of cathelicidins on TLR-2, -4, and -9 activation. LPS (100 ng/ml) (A), LTA (1 μg/ml) (B) or ODN-1826 (2.5 nM) (C) was mixed with different cathelicidins (0.08 μM, 0.31 μM, 1.25 μM, 5 μM, and 20 μM) before addition to the RAW264.7 cells. Supernatants were collected after 2 hours (A,B) or 24 hours (C) incubation and TNFα expression was measured. The dotted line represents the average cytokine release of control samples. Results are presented as average +/− SEM (N = 3). Statistical differences were determined by Two-way ANOVA with Bonferroni post-hoc test.

The subject of test [3] is CXCL10 (IP-10) release by RAW264.7 cells. In words: Cathelicidin induced CXCL10 release. Conditions: for Increase of CXCL10 secretion after 24 h stimulation: 20 μM peptide; for Summary class, chemokines CXCL10 (24 h): 24 h stimulation, peptide 0.08-20 μM, − = no significant effect, N = 3. As to the method: as §1, §6, §2, §3, §4
For test [4], the system named is DNA-induced TLR-9 activation of RAW264.7 cells. As to the kind of experiment: Enhancement of DNA (ODN-1826)-induced TNFα release. To be noted: 2.5 nM ODN-1826, TNFα after 24 h; for Enhancement of DNA-induced TLR-9 activation, in words: 20 μM for the named peptides; for Summary class, TLR activation DNA: peptide 0.08-20 μM, − = no significant effect, N = 3.
Excerpt: as §5, §6, §2, §7
All other peptides had no effect on the DNA-induced TLR-9 activation. To ensure that the increase of TNFα secretion was indeed enhancement of DNA-induced activation and not a result of direct induction by cathelicidins, TNFα release was determined after 24 h cathelicidin stimulation (see Supplementary Fig. S2D). None of the cathelicidins induced TNFα release after 24 h, (if anything, most cathelicidins caused a small reduction of TNFα secretion) indicating the increased activation is indeed enhancement of DNA-induced activation.

Test [5] has as its system CCL5 (RANTES) release by RAW264.7 cells. In words: Cathelicidin induced CCL5 release. To be noted: for Induction of CCL5 secretion after 24 h stimulation: 20 μM peptide; for Summary class, chemokines CCL5 (24 h): 24 h stimulation, peptide 0.08-20 μM, − = no significant effect, N = 3. Here is the method: as §1, §6, §2, §3
Figure 2 Cathelicidin induced chemokine and cytokine release by RAW264.7 cells. RAW264.7 cells were incubated for 2 h and 24 h with cathelicidins (0.08 μM, 0.31 μM, 1.25 μM, 5 μM, and 20 μM), after which the supernatants were harvested and tested for release of CCL2 at 2 h (A) and 24 h (B), CCL5 at 24 h (C) and CXCL10 at 24 h (D). Dotted line represents average cytokine release of control samples. […] Statistical differences were determined by Two-way ANOVA with Bonferroni post-hoc test.

On to “Ac-GRFRRLRKKTRKRLKKIGKVLKWIPPIVGSIPLGCG [PMAP-36, porcine α-helical cathelicidin, N-acetylated, 36 residues, charge +13]”, for which the “Enhancement of CCL2 secretion after 2 h stimulation” value (shortened to “Enhancement of CCL2 secretion”) in test [1] (5 μM peptide) is recorded as 3–4 fold.

As for “GLLRKGGEKIGEKLKKIGQKIKNFFQKLVPQPEQ [CRAMP, murine cathelicidin, 34 residues, charge +6]”, the “Summary class, TLR activation LTA” value in test [2] is reported as “↓ (↓ = significant decrease at 20 μM)”. Moreover, in test [3], the “Increase of CXCL10 secretion after 24 h stimulation” value (shortened to “Increase of CXCL10 secretion”) was 2–3 fold and the “Summary class, chemokines CXCL10 (24 h)” value is listed as “↑ (↑ = significant increase at 20 μM)”.

For “KRRHWFPLSFQEFLEQLRRFRDQLPFP [eCATH-2, equine CATH-2, 27 residues, charge +4]”, in test [4], the “Enhancement of DNA-induced TLR-9 activation, in words” value (“Enhancement … in words” below) is on record as “able to enhance DNA-induced TLR-9 activation” and the “Summary class, TLR activation DNA” value is listed as “↑ (↑ = significant increase at 20 μM)”. Moreover, in test [2], the “Summary class, TLR activation LTA” value is reported as “↓↓ (↓↓ = significant decrease ≤5 μM)” and the “LTA neutralization / inhibition of LTA-induced activation, in words” value is “significantly inhibited”. Besides, in test [3], the “Increase of CXCL10 secretion” value is reported as 2–3 fold and the “Summary class, chemokines CXCL10 (24 h)” value is listed as “↑ (↑ = significant increase at 20 μM)”.

Regarding “RFGRFLRKIRRFRPKVTITIQGSARF-NH2 [chCATH-2, chicken CATH-2, C-terminal amide, 26 residues, charge +9]”, the “Enhancement of CCL2 secretion” value in test [1] (20 μM peptide) is reported as 3–4 fold. Further, in test [1] (peptide 0.08-20 μM), the “Summary class, chemokines CCL2 (2 h)” value is on record as “↑ (↑ = significant increase at 20 μM)”. In test [5], the “Induction of CCL5 secretion after 24 h stimulation” value is recorded as 2–3 fold and the “Summary class, chemokines CCL5 (24 h)” value is “↑ (↑ = significant increase at 20 μM)”. Besides, in test [4], the “Optimal concentration to induce DNA activation” value worked out at 1.25 µM and the “Summary class, TLR activation DNA” value was “↑↑ (↑↑ = significant increase ≤5 μM)”. In addition, in test [2], the “Summary class, TLR activation LTA” value is listed as “↓↓ (↓↓ = significant decrease ≤5 μM)” and the “LTA neutralization / inhibition of LTA-induced activation, in words” value is listed as “potently inhibited”.

As to “RIIDLLWRVRRPQKPKFVTVWVR [PMAP-23, porcine α-helical cathelicidin, 23 residues, charge +6]”, in test [4], the “Enhancement … in words” value is recorded as “able to enhance DNA-induced TLR-9 activation” and the “Summary class, TLR activation DNA” value is “↑ (↑ = significant increase at 20 μM)”. In addition, the “Summary class, TLR activation LTA” value in test [2] was “↓ (↓ = significant decrease at 20 μM)”.

As for “RLKELITTGGQKIGEKIRRIGQRIKDFFKNLQPREEKS [Peptide K9CATH, dog cathelicidin, 38 residues, charge +6]”, in test [5], the “Induction of CCL5 secretion after 24 h stimulation” value is recorded as 2–3 fold and the “Summary class, chemokines CCL5 (24 h)” value is “↑ (↑ = significant increase at 20 μM)”. Further, in test [3], the “Increase of CXCL10 secretion” value was 2–3 fold and the “Summary class, chemokines CXCL10 (24 h)” value is listed as “↑ (↑ = significant increase at 20 μM)”.

With “RRRPRPPYLPRPRPPPFFPPRLPPRIPPGFPPRFPPRFP [PR-39, porcine proline-rich cathelicidin forming a polyproline helix, 39 residues, charge +10]”, the “Effect on CCL2 secretion after 24 h stimulation, in words” value in test [1] (24 h, peptide 0.08-20 μM) is “non-significant”. In test [4], the “Enhancement … in words” value is recorded as “able to enhance DNA-induced TLR-9 activation” and the “Summary class, TLR activation DNA” value is “↑ (↑ = significant increase at 20 μM)”.

Take “RVKRFWPLVPVAINTVAAGINLYKAIRRK [chCATH-3, chicken CATH-3, 29 residues, charge +7]”: the “Enhancement of CCL2 secretion” value in test [1] (5 μM peptide) and in test [1] (20 μM peptide) was 3–4 fold throughout. For the same substance, the “Summary class, chemokines CCL2 (2 h)” value in test [1] (peptide 0.08-20 μM) was “↑↑ (↑↑ = significant increase ≤5 μM)”.
